The results in this text go back to the Biogen ADME set (Fang et al. 2023).

The conditions of this series: for aqueous solubility: pH 6.8.

In brackets after ≈: the same amount, converted by molar mass.

For `Cc1ccc(CC(=O)Nc2nc(C)no2)cn1`, the MDR1-MDCK efflux ratio was 2; the intrinsic clearance, human liver microsomes was no more than 4.74 mL/min/kg; the intrinsic clearance, rat liver microsomes was no more than 10.7 mL/min/kg; the aqueous solubility (in general, how much of the substance goes into solution per volume) stood at 42.8 µg/mL (≈ 184 µM).

In turn, `O=C(NC1CCCCC1)N1CCc2nc3ccccn3c(=O)c2C1` returned an intrinsic clearance, human liver microsomes of no more than 4.74 mL/min/kg; an intrinsic clearance, rat liver microsomes of 123 mL/min/kg; an aqueous solubility of 50 µg/mL (≈ 153 µM).

With `COc1cc2c(cc1NC(C)=O)oc1ccccc12`, the MDR1-MDCK efflux ratio worked out at 0.379; the intrinsic clearance, human liver microsomes came to 117 mL/min/kg; the intrinsic clearance, rat liver microsomes amounted to 63.7 mL/min/kg; the aqueous solubility came to 34.4 µg/mL (≈ 135 µM).

Turning to `Cc1ccc(OCN2CCCCC2=O)nc1`, the MDR1-MDCK efflux ratio worked out at 2.63; the intrinsic clearance, human liver microsomes came out at 5.26 mL/min/kg; the intrinsic clearance, rat liver microsomes was no more than 10.7 mL/min/kg.

With `O=C(NCCc1csc(N2CCCC2)n1)N1CCSCC1`, the MDR1-MDCK efflux ratio was 4.26; the intrinsic clearance, human liver microsomes is 61.9 mL/min/kg; the intrinsic clearance, rat liver microsomes is 882 mL/min/kg; the aqueous solubility was 52.6 µg/mL (≈ 161 µM).

On to `CN(c1ncnc2c1cnn2CCO)C1CCCCC1`, for which the MDR1-MDCK efflux ratio came to 0.672; the intrinsic clearance, human liver microsomes was no more than 4.74 mL/min/kg; the intrinsic clearance, rat liver microsomes stood at 77.5 mL/min/kg; the aqueous solubility was 44.7 µg/mL (≈ 162 µM).

The molecule `C=CCN(C)CCCCCCOc1ccc(C(=O)c2ccc(Br)cc2)c(F)c1` showed an intrinsic clearance, human liver microsomes of 31.1 mL/min/kg; an intrinsic clearance, rat liver microsomes of 320 mL/min/kg; an aqueous solubility of 21.4 µg/mL (≈ 47.7 µM).

`O=C(Nc1ccccc1)Nc1ccc(-c2ccc(C(=O)[C@H]3CCC[C@@H]3C(=O)O)cc2)cc1`: the MDR1-MDCK efflux ratio stood at 5.96; the intrinsic clearance, human liver microsomes turned out to be 11.3 mL/min/kg; the intrinsic clearance, rat liver microsomes is 23.8 mL/min/kg.

Molecule `O=S(=O)(c1ccccc1)N(CC(F)(F)F)c1ccc(C(O)(C(F)(F)F)C(F)(F)F)cc1` returned an intrinsic clearance, human liver microsomes of 7.61 mL/min/kg and an intrinsic clearance, rat liver microsomes of 14.6 mL/min/kg.

Consider `Cc1nn(C(F)F)c(C)c1CC(=O)NCCNC(C)(C)C`, for which the MDR1-MDCK efflux ratio is 20.6; the intrinsic clearance, human liver microsomes is no more than 4.74 mL/min/kg; the intrinsic clearance, rat liver microsomes was found to be 253 mL/min/kg.

Turning to `CN(Cc1sccc1Br)c1nccnc1C#N`, the aqueous solubility turned out to be 8.5 µg/mL (≈ 27.5 µM).

With `Cc1c(C(=O)Nc2ccc(N3C[C@@H](C)O[C@H](C)C3)nc2)cccc1-c1ccc(OC(F)(F)F)cc1`, the MDR1-MDCK efflux ratio was 1.16; the intrinsic clearance, human liver microsomes came out at 24 mL/min/kg; the intrinsic clearance, rat liver microsomes was 74.9 mL/min/kg.

With `c1ccc(Nc2nc(N3CCNCC3)nc(N3CCOCC3)n2)cc1`, the MDR1-MDCK efflux ratio is 43.2; the intrinsic clearance, human liver microsomes was no more than 4.74 mL/min/kg; the intrinsic clearance, rat liver microsomes came to 57 mL/min/kg.

`O=C(c1ccc(NS(=O)(=O)c2cccc3cccnc23)cc1)N1CCN(CC2CC2)CC1` yielded an intrinsic clearance, human liver microsomes of 75.9 mL/min/kg and an intrinsic clearance, rat liver microsomes of 604 mL/min/kg.

Consider `CN(C)S(=O)(=O)Nc1ccc2sncc2c1`, for which the aqueous solubility came to 53.6 µg/mL (≈ 208 µM).

As to `CN1CCN(Cc2noc(Cc3ccccc3)n2)c2ccccc21`, the MDR1-MDCK efflux ratio is 0.641; the intrinsic clearance, human liver microsomes amounted to 341 mL/min/kg; the intrinsic clearance, rat liver microsomes came out at 2000 mL/min/kg; the aqueous solubility came to 14.1 µg/mL (≈ 44 µM).

As to `Cn1cccc(C(=O)NCc2nc(C(C)(C)C)no2)c1=O`, the MDR1-MDCK efflux ratio came out at 1.44; the intrinsic clearance, human liver microsomes is no more than 4.74 mL/min/kg; the intrinsic clearance, rat liver microsomes is 137 mL/min/kg.

Take `CN(C)c1ccc(-c2ccc(C(=O)NCCN3CCCC3=O)cc2)nn1`: the MDR1-MDCK efflux ratio worked out at 55.2; the intrinsic clearance, human liver microsomes is no more than 4.74 mL/min/kg; the intrinsic clearance, rat liver microsomes stood at 75 mL/min/kg.

With `Cc1cc(C)nc(CNC(=O)CC2CCNCC2)n1`, the intrinsic clearance, human liver microsomes is no more than 4.74 mL/min/kg; the intrinsic clearance, rat liver microsomes was no more than 10.7 mL/min/kg; the aqueous solubility is 55.5 µg/mL (≈ 212 µM).

On to `Cc1cc(C(=O)O)c2ccc(F)cc2n1`, for which the aqueous solubility worked out at 24.8 µg/mL (≈ 121 µM).

As to `c1ccc2nc(N3CCCC4(CCNCC4)CC3)cnc2c1`, the MDR1-MDCK efflux ratio stood at 33.3; the intrinsic clearance, human liver microsomes was no more than 4.74 mL/min/kg; the intrinsic clearance, rat liver microsomes was determined as 495 mL/min/kg.

`CCN1CCN(S(=O)(=O)Cc2ccc(Cl)c(Cl)c2)CC1`: the MDR1-MDCK efflux ratio was determined as 0.41; the fraction unbound, human plasma turned out to be 0.177; the fraction unbound, rat plasma was found to be 0.118; the intrinsic clearance, human liver microsomes amounted to 82.8 mL/min/kg. Further, the intrinsic clearance, rat liver microsomes is 1440 mL/min/kg and the aqueous solubility came to 25.7 µg/mL (≈ 76.2 µM).

Regarding `COc1cc(OC)c(OC)cc1CNc1ccc(N2CCOCC2)c(C(=O)O)c1`, the MDR1-MDCK efflux ratio came out at 28; the intrinsic clearance, human liver microsomes was no more than 4.74 mL/min/kg; the intrinsic clearance, rat liver microsomes was no more than 10.7 mL/min/kg; the aqueous solubility was 29.2 µg/mL (≈ 72.6 µM).

As for `O=C(c1ccc(O)nc1)N1CCN(c2ncccn2)CC1`, the MDR1-MDCK efflux ratio was found to be 7; the intrinsic clearance, human liver microsomes was no more than 4.74 mL/min/kg; the intrinsic clearance, rat liver microsomes was no more than 10.7 mL/min/kg; the aqueous solubility came to 43.1 µg/mL (≈ 151 µM).

As for `CONC(=O)c1cn(-c2ccc(Br)cc2)cn1`, the intrinsic clearance, human liver microsomes is no more than 4.74 mL/min/kg; the intrinsic clearance, rat liver microsomes was 463 mL/min/kg; the aqueous solubility amounted to 63.6 µg/mL (≈ 215 µM).

As for `CCc1cnc(CCNc2cncc(Cl)n2)s1`, the intrinsic clearance, human liver microsomes was 183 mL/min/kg; the intrinsic clearance, rat liver microsomes was 855 mL/min/kg; the aqueous solubility turned out to be 48 µg/mL (≈ 179 µM).

Take `Nc1ccc2c(ccn2CC(=O)N2CCOCC2)c1`: the intrinsic clearance, human liver microsomes was no more than 4.74 mL/min/kg; the intrinsic clearance, rat liver microsomes was no more than 10.7 mL/min/kg; the aqueous solubility came to 50.5 µg/mL (≈ 195 µM).

As for `O=C(NCc1cccc(F)c1)c1[nH]nnc1-c1ccccc1`, the MDR1-MDCK efflux ratio was found to be 1.37; the intrinsic clearance, human liver microsomes is no more than 4.74 mL/min/kg; the intrinsic clearance, rat liver microsomes amounted to 17.4 mL/min/kg; the aqueous solubility was found to be 20.9 µg/mL (≈ 70.7 µM).

As for `CCCNC(=O)CSc1nc2cc(C)ccc2[nH]1`, the MDR1-MDCK efflux ratio turned out to be 2.1; the intrinsic clearance, human liver microsomes was determined as 107 mL/min/kg; the intrinsic clearance, rat liver microsomes was 1190 mL/min/kg.

Regarding `C[C@@H]1NC(=O)N(CCC2Cc3ccccc3C2)C1=O`, the MDR1-MDCK efflux ratio came out at 0.771; the intrinsic clearance, human liver microsomes was no more than 4.74 mL/min/kg; the intrinsic clearance, rat liver microsomes was determined as 193 mL/min/kg.

Turning to `CCc1nnc(N2CC(N(C)C)C2)c(C#N)c1CC`, the MDR1-MDCK efflux ratio worked out at 0.843; the intrinsic clearance, human liver microsomes was 9.15 mL/min/kg; the intrinsic clearance, rat liver microsomes stood at 130 mL/min/kg.

As for `O=C(NCc1ccc(F)cc1)C1CCN(C(=O)/C=C/c2ccc(F)cc2)CC1`, the MDR1-MDCK efflux ratio was found to be 6.14; the intrinsic clearance, human liver microsomes is no more than 4.74 mL/min/kg; the intrinsic clearance, rat liver microsomes stood at 106 mL/min/kg; the aqueous solubility worked out at 3.03 µg/mL (≈ 7.88 µM).

In turn, `O=C(Nc1c(F)cccc1Oc1ccccc1)c1cnccn1` registered an intrinsic clearance, human liver microsomes of 34.6 mL/min/kg and an intrinsic clearance, rat liver microsomes of 1080 mL/min/kg.

With `Cc1nccc(N(C)Cc2ccc(N)nc2)n1`, the MDR1-MDCK efflux ratio was found to be 4.39; the intrinsic clearance, human liver microsomes is no more than 4.74 mL/min/kg; the intrinsic clearance, rat liver microsomes was no more than 10.7 mL/min/kg.

For the molecule `O=C(c1ccc(F)cc1)N1CCN(CC(=O)N2CCCC2=O)CC1`, the MDR1-MDCK efflux ratio is 10.4; the intrinsic clearance, human liver microsomes is no more than 4.74 mL/min/kg; the intrinsic clearance, rat liver microsomes is 14.1 mL/min/kg; the aqueous solubility was 94.8 µg/mL (≈ 284 µM).

Turning to `CSc1ccc(C)c(C(=O)NCCN2CCC(C)CC2)c1`, the MDR1-MDCK efflux ratio was 0.841; the intrinsic clearance, human liver microsomes was 39.6 mL/min/kg; the intrinsic clearance, rat liver microsomes is 1750 mL/min/kg.

Regarding `CCc1cc(N2CCOCC2)nc(C2CCN(C(=O)C3CC3)CC2)n1`, the MDR1-MDCK efflux ratio amounted to 4.76; the intrinsic clearance, human liver microsomes stood at 11.6 mL/min/kg; the intrinsic clearance, rat liver microsomes is 278 mL/min/kg.

Consider `COCC(=O)Nc1cc(C#N)cn1C(C)(C)C`, for which the MDR1-MDCK efflux ratio came to 1.29; the intrinsic clearance, human liver microsomes was no more than 4.74 mL/min/kg; the intrinsic clearance, rat liver microsomes is 15.3 mL/min/kg.

On to `CC(=O)n1c(/C=C2/N=C(c3ccc(F)cc3)OC2=O)cc2ccccc21`, for which the intrinsic clearance, human liver microsomes is 109 mL/min/kg; the intrinsic clearance, rat liver microsomes came out at 144 mL/min/kg; the aqueous solubility worked out at 5.43 µg/mL (≈ 15.6 µM).

Take `CCOc1ccc(CNC(=O)Cn2ccc3cc(S(=O)(=O)N4CCCC4)ccc32)cc1`: the MDR1-MDCK efflux ratio was 11.9; the intrinsic clearance, human liver microsomes worked out at 423 mL/min/kg; the intrinsic clearance, rat liver microsomes is 2100 mL/min/kg.

Turning to `COc1ncccc1C(=O)Nc1nc(C)nn1C`, the MDR1-MDCK efflux ratio was found to be 0.585; the intrinsic clearance, human liver microsomes was no more than 4.74 mL/min/kg; the intrinsic clearance, rat liver microsomes is no more than 10.7 mL/min/kg.

As to `Fc1ccc(-n2nc(C3CCOCC3)nc2-c2cn[nH]c2)c(F)c1`, the MDR1-MDCK efflux ratio came out at 19.6; the intrinsic clearance, human liver microsomes is no more than 4.74 mL/min/kg; the intrinsic clearance, rat liver microsomes came out at 62.7 mL/min/kg; the aqueous solubility came out at 25.9 µg/mL (≈ 78.1 µM).

Consider `Cc1ccnc(C2CCN(C3CCCC3)CC2)n1`, for which the MDR1-MDCK efflux ratio turned out to be 1.12; the intrinsic clearance, human liver microsomes is no more than 4.74 mL/min/kg; the intrinsic clearance, rat liver microsomes turned out to be 848 mL/min/kg; the aqueous solubility amounted to 16.1 µg/mL (≈ 65.5 µM).

For `c1ccc(C2(c3ccccc3)CCCN(Cc3nnc(C4CC4)o3)C2)cc1`, the MDR1-MDCK efflux ratio was found to be 0.685; the intrinsic clearance, human liver microsomes was determined as 246 mL/min/kg; the intrinsic clearance, rat liver microsomes was determined as 1200 mL/min/kg; the aqueous solubility worked out at 35.6 µg/mL (≈ 98.9 µM).

Consider `O=C(Cc1cccnc1)Nc1ncccc1Cl`, for which the MDR1-MDCK efflux ratio turned out to be 0.704; the intrinsic clearance, human liver microsomes is no more than 4.74 mL/min/kg; the intrinsic clearance, rat liver microsomes turned out to be 31.1 mL/min/kg.

For the molecule `CCc1cnc(NCc2ccc(CN3CCCC3)cc2)nc1`, the MDR1-MDCK efflux ratio came out at 1.06; the intrinsic clearance, human liver microsomes was no more than 4.74 mL/min/kg; the intrinsic clearance, rat liver microsomes is 291 mL/min/kg; the aqueous solubility is 31.8 µg/mL (≈ 107 µM).

In turn, `CC(C)[C@@](C)(O)[C@@H]1CN(c2nc(-c3n[nH]c4ncccc34)c(F)cc2Cl)CCN1` yielded a fraction unbound, human plasma of 0.201 and a fraction unbound, rat plasma of 0.0419.

In the case of `Cc1cc(C(=O)Nc2cccc(-c3cnco3)c2)c2c(C)nn(C)c2n1`, the MDR1-MDCK efflux ratio stood at 1.08; the intrinsic clearance, human liver microsomes was 29 mL/min/kg; the intrinsic clearance, rat liver microsomes was found to be 75.1 mL/min/kg; the aqueous solubility was determined as 8.73 µg/mL (≈ 25.1 µM).
